Laboratory results from patent publication US8741912B2, “Deazapurines useful as inhibitors of Janus kinases” (Vertex Pharmaceuticals Incorporated, priority 2006, dated 2014).

Experiments:
JAK3 = target: T1, JAK3 (Homo sapiens, UniProt P52333); assay: JAK3 inhibition assay (33P incorporation into poly(Glu)4Tyr); type: biochemical; conditions: 1 nM JAK3; 1 μM poly(Glu)4Tyr, 5 μM ATP, 25° C.; read-out: JAK3 enzyme inhibition (Ki)
T1 sequence (P52333 1-1124): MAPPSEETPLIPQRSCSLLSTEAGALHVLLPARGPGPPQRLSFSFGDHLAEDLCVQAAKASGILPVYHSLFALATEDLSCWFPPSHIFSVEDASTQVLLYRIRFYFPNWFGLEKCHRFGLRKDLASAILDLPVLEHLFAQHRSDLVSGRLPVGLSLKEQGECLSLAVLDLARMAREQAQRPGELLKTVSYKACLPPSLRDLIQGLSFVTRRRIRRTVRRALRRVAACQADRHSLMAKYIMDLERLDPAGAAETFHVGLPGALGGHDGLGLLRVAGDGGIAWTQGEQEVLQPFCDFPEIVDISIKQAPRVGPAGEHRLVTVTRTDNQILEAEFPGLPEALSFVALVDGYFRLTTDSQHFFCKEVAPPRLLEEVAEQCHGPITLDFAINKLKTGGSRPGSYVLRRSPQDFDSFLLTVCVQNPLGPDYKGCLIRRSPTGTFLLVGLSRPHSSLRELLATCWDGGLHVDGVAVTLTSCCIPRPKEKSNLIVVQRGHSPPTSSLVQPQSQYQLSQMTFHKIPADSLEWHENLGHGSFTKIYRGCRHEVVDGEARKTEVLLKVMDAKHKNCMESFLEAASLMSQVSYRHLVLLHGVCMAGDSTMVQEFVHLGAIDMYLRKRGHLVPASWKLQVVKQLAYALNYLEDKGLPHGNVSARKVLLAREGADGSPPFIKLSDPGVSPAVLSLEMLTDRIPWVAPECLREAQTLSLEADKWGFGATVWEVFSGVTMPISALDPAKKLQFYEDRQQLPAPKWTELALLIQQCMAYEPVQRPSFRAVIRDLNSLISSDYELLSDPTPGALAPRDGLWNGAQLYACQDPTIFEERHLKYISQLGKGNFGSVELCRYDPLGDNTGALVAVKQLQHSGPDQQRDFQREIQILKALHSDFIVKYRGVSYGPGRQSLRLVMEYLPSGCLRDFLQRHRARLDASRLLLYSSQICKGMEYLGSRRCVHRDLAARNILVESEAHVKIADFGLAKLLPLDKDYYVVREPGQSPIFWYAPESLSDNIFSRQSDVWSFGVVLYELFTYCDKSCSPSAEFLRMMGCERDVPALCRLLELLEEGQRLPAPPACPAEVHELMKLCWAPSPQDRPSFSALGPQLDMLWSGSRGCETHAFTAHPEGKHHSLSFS
Protocol: (§1) Compounds were screened for their ability to inhibit JAK3 using the assay shown below. Reactions were carried out in a kinase buffer containing 100 mM HEPES (pH 7.4), 1 mM DTT, 10 mM MgCl2, 25 mM NaCl, and 0.01% BSA. Substrate concentrations in the assay were 5 μM ATP (200 uCi/μmole ATP) and 1 μM poly(Glu)4Tyr. Reactions were carried out at 25° C. and 1 nM JAK3.
(§2) To each well of a 96 well polycarbonate plate was added 1.5 μl of a candidate JAK3 inhibitor along with 50 μl of kinase buffer containing 2 μM poly(Glu)4Tyr and 10 μM ATP. This was then mixed and 50 μl of kinase buffer containing 2 nM JAK3 enzyme was added to start the reaction. After 20 minutes at room temperature (25° C.), the reaction was stopped with 50 μl of 20% trichloroacetic acid (TCA) that also contained 0.4 mM ATP. The entire contents of each well were then transferred to a 96 well glass fiber filter plate using a TomTek Cell Harvester. After washing, 60 μl of scintillation fluid was added and ^33P incorporation detected on a Perkin Elmer TopCount.

JAK-2 enzyme = JAK-2 enzyme (Homo sapiens, UniProt O60674); assay: JAK2 inhibition assay (33P incorporation into poly(Glu)4Tyr); type: biochemical; conditions: 15 μM poly(Glu)4Tyr, 12 μM ATP
Protocol: as §1, §2
The assays were as described above in Example 36 except that JAK-2 enzyme was used, the final poly(Glu)4Tyr concentration was 15 μM, and final ATP concentration was 12 μM.

Chain of JAK-2 enzyme (O60674 whole entry): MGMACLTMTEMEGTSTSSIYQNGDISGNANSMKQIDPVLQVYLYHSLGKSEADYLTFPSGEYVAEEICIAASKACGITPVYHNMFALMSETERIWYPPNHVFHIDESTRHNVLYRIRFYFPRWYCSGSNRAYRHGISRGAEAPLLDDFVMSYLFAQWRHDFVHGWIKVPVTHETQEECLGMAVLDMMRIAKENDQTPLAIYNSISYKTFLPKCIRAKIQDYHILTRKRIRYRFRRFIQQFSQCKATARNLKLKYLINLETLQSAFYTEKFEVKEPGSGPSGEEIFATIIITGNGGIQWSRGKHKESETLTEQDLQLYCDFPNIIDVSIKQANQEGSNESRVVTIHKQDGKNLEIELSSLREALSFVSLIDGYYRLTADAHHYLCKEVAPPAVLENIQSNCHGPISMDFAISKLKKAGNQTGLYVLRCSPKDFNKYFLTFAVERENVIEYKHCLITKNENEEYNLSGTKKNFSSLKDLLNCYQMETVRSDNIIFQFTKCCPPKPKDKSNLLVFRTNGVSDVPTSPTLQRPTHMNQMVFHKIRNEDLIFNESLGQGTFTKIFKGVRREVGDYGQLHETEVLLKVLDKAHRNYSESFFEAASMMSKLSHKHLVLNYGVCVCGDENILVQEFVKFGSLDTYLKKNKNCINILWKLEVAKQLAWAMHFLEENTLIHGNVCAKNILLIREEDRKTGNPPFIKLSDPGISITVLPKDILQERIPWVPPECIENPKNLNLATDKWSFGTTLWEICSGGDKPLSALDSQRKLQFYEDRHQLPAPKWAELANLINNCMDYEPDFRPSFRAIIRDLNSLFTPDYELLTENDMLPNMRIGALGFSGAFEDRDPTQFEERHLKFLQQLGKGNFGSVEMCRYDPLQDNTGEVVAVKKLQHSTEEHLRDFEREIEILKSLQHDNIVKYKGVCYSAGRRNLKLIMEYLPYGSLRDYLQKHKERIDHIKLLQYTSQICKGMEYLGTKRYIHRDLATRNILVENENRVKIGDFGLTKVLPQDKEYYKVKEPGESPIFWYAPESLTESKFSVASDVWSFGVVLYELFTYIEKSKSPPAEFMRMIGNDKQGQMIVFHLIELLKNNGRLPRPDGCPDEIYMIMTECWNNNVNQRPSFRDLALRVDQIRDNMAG

Ki (JAK3): 100 to 500 nM | Ki (JAK-2 enzyme): < 100 nM
SMILES: CN(CC#N)C(=O)c1cc(-c2ncnc3[nH]ccc23)cn1C [Compound 236]
